Results on five molecules are retold here after patent US20250381183A1, “TARGETING S100A9-ALDH1A1-RETINOIC ACID SIGNALING TO SUPPRESS BRAIN RELAPSE IN EGFR-MUTANT LUNG CANCER” (The Trustees of Columbia University in the City of New York, priority 2022, published 2025).

Assay [1] has as its system RAR target gene STRA6. Put plainly: STRA6 expression by qRT-PCR in H1650-Tr-BrM cells. It is filed as cell-based, human. Conditions: two days; for inhibition of retinol-induced STRA6 expression: 5 μM retinol and 5 μM antagonist. The procedure: (§1) FIG. 13A-FIG. 13B: STRA6 expression was determined by qRT-PCR analysis of Tr-BrM cells from the PC9 model (13(a)) and H1650 model (13(b)), which were treated with either DMSO, retinol or retinol plus different retinoic acid receptor antagonists. Cells were cultured for two days in serum-free RPMI medium with DMSO alone, with 5 μM retinol alone, or medium with both 5 μM retinol and 5 μM antagonists (either the RAR-α antagonist BMS-195614, the RAR-γ antagonist MM-11253, or the pan-RAR antagonist AGN-194310). After two days of culturing, cells were washed and collected for RNA analysis. GAPDH was measured as an internal control. […] For the PC9 model in 13(a), n=8 for vehicle; n=5 for retinol; n=3 for retinol plus the RAR-alpha inhibitor (“RAR-α-inh.”); n=3 for retinol plus the RAR-gamma inhibitor (“RAR-γ-inh.”); n=4 for retinol plus the pan-RAR inhibitor (“pan-RAR-inh.”). For the H1650 model in 13(b), n=7 for all groups.

In assay [2] the test system is RAR target gene STRA6. Put plainly: STRA6 expression by qRT-PCR in PC9-Tr-BrM cells. Type of assay: cell-based, human. The following applies: two days; for inhibition of retinol-induced STRA6 expression: 5 μM retinol and 5 μM antagonist. The procedure: as §1
For orientation: Quantitative PCR measures a nucleic acid by following its amplification.

The subject of assay [3] is PC9-Tr-BrM cells. The assay is described as follows: Treatment of PC9-Tr-BrM brain metastasis in mice with AGN194310 and/or osimertinib. The following applies: 0.5 mg/kg body weight/day, five days per week from day 25 to 7 weeks, vs vehicle and osimertinib alone.
In assay [4] the test system is HCC4006. The assay is described as follows: Cell viability assay, sensitivity to pan-RAR inhibition, HCC4006. The following applies: HCC4006, lacks S100A9 and ALDH1A1 expression. Type of assay: cell-based, human. Here is the method:
(§2) FIG. 13C: Cell viability assay for comparing in-vitro sensitivity of the indicated cell lines to pan-RAR-inhibition (AGN194310, abbreviated as “AGN”). Cell viability values are normalized to the vehicle (DMSO)-treated control, presented as the mean values±SEM, and representative of three independent experiments. P-values were determined by two-way ANOVA with Tukey's test.

Assay [5] has as its system H1650-Tr-BrM cells. The assay is described as follows: Treatment of H1650-Tr-BrM brain metastasis in mice with AGN194310 and/or osimertinib. Conditions: 0.5 mg/kg body weight/day, five days per week from day 25 to 7 weeks, vs vehicle and osimertinib alone.
In assay [6] the test system is H1975. Put plainly: Cell viability assay, sensitivity to pan-RAR inhibition, H1975. It is filed as cell-based, human. Conditions: H1975, lacks S100A9 and ALDH1A1 expression. Here is the method: as §2
In assay [7] the test system is H1650-derivatives. Put plainly: Lung orthotopic (intrathoracic) implantation, H1650-derivatives, AGN194310 treatment. It is filed as in vivo, mice. Conditions: H1650-derived, directly implanted in the lung, treated 2 weeks. Here is the method:
FIG. 12K: Schematic representation of the experimental protocol for lung orthotopic injections. H1650-Tr-BrM-lung derivatives stably expressing either Lenti-Con, S100A9i, ALDH1A1i, or S100A9i plus ALDH1A1 o/e were injected in the lung (intrathoracic injections, labeled as “lung orthotopic injection” in the figure). Mice were euthanized at 21 days post tumor-cell injection for analysis.
FIG. 13P-FIG. 13Q: Violin plots depicting normalized photon flux of lung measured by bioluminescence imaging of mice. […] For panel (p): n=8 for Veh, and n=11 for Pan-RARi. For panel (q): n=7 for Veh, and n=8 for Pan-RARi.

Assay [8] concerns PC9-derivatives. The assay is described as follows: Lung orthotopic (intrathoracic) implantation, PC9-derivatives, AGN194310 treatment. Type of assay: in vivo, mice. The following applies: PC9-derived, directly implanted in the lung, treated 2 weeks.
Assay [9] has as its system phospho-EGFR (Tyr1068), phospho-ERK (Thr202/Tyr204). The following applies: PC9-BrM and PC9-Tr-BrM, 6 hours post-treatment, similar in both.
From the text: Antibodies against phospho-EGFR (Tyr1068), phospho-ERK (Thr202/Tyr204), total-EGFR, total-ERK and □-actin (loading control) were used. Data are representative of three independent experiments.
Assay [10] concerns phospho-EGFR (Tyr1068). The assay is described as follows: phospho-EGFR immunostaining of brain sections, H1650-BrM model. The following applies: osimertinib 5 mg/kg/day vs vehicle. It is filed as in vivo, immunodeficient mice.
From the text: FIG. 9D: Brain sections from mice injected with H1650-BrM cells described in FIG. 8g-h were immunostained using an antibody against phospho-EGFR (Tyr1068). […] Mice were then euthanized, and brain tissues were subsequently processed for histological analysis. Representative images of immunohistochemical staining for phospho-EGFR in brain sections are shown. Dotted lines surround the location of metastatic cells in the brain. Scale bars, 100 μm.
FIG. 9E: The pEGFR-stained brain sections from the H1650-derived model described in panel (d) were quantitated using automated Qu-Path software to count pEGFR-positive cancer cells that were identified by setting a threshold for signal intensity (1+). Data are represented as mean values±SEM.
In assay [11] the test system is phospho-EGFR (Tyr1068), phospho-ERK. Conditions: H1650-BrM and H1650-Tr-BrM, 6 hours post treatment, similar in both.
From the text: Antibodies against phospho-EGFR (Tyr1068), phospho-ERK, total-EGFR, total-ERK and β-actin (loading control) were used. Data are representative of three independent experiments.
Assay [12] concerns PC9-Tr-BrM cells. The assay is described as follows: PC9-Tr-BrM (osimertinib-refractory) brain metastasis mouse model, vehicle or osimertinib. Type of assay: in vivo, immunodeficient mice. Conditions: PC9-Tr-BrM-injected mice, osimertinib vs vehicle. The procedure: FIG. 1E: Kaplan-Meier plot for brain-metastasis-progression-free survival of mice injected with PC9-Tr-BrM cells followed by treatment with either vehicle or osimertinib. Data were analyzed using the log-rank test: χ2=1.325, d.f.=1, p-value not significant (ns), n=20 for vehicle-treated mice and 17 for osimertinib-treated mice.
Mice were euthanized at 7 weeks post tumor-cell injection. Scale bars, 200 μm.
To understand the underlying mechanisms of brain relapse using this model, we isolated brain metastatic cells from the relapsed brain of osimertinib-treated mice and designated them PC9-Tr-BrM (Treated Brain Metastatic, FIG. 1d).

For assay [13], the system named is phospho-EGFR (Tyr1068). Put plainly: phospho-EGFR immunostaining of brain sections, PC9-BrM model. Type of assay: in vivo, immunodeficient mice. The following applies: osimertinib 5 mg/kg/day vs vehicle.
From the text: FIG. 2B: Brain sections from mice injected with PC9-BrM cells described in FIG. 1a-b were immunostained using an antibody against phospho-EGFR (Tyr1068). […] The endpoint for vehicle-treated mice was two months post tumor-cell injection (“Vehicle”). The endpoint for osimertinib-treated mice was 4 months post tumor-cell injection for micrometastases (“Micromet”) and 8 months post tumor-cell injection for relapsed metastatic lesion (“Relapsed Met”). For the osimertinib treatment group, mice were administered osimertinib by oral gavage. At 6 hours post treatment, mice were euthanized, and brain tissues were subsequently processed for histological analysis. Representative images of immunohistochemical staining for phospho-EGFR in brain sections are shown. Arrows point to, and dotted line surrounds, the location of metastatic cells in the brain.
FIG. 2C: The pEGFR-immunostained brain sections described in panel (b) were quantitated using automated Qu-Path software to count pEGFR-positive cancer cells that were identified by setting a threshold for signal intensity (1+).
In assay [14] the test system is EGFR-mutant lung cancer. Conditions: cited from earlier work.
The subject of assay [15] is H1650-Tr-BrM cells. Put plainly: H1650-Tr-BrM brain metastasis mouse model, vehicle or osimertinib. The following applies: H1650-Tr-BrM-injected mice. It is filed as in vivo, immunodeficient mice. The procedure: . Data were analyzed using the log-rank test: χ2=2.541, d.f.=1, p-value not significant (ns), n=6 for vehicle-treated mice, and n=4 for osimertinib-treated mice.
. Arrow points to the location of metastatic cells in the brain. Mice were euthanized at 60 days post tumor-cell injection. Scale bars, 200 μm.
FIG. 8H: Quantitative analysis of the percentage of brain tissue sections covered by metastasis from the experiment described in panel (g). […]; We then isolated brain metastatic cells from the osimertinib-treated mice (designated H1650-Tr-BrM), injected them into the arterial circulation of naive immunodeficient mice and treated the mice with either vehicle or osimertinib.

[16] abbreviates: serum-free media, 5 μM retinol alone vs DMSO.

Take `CCc1ccc(C2=CC(C)(C)Sc3ccc(C#Cc4ccc(C(=O)O)cc4)cc32)cc1` [AGN-194310]: the “inhibition of retinol-induced STRA6 expression” value in assay [1] and in [2] was “dramatically reduced” each time. Moreover, the “brain metastasis (bioluminescence imaging and CK7 metastasis surface area)” value in assay [3] and in assay [5] was “striking reduction” throughout. The loss of viability result in [4] and in assay [6] was “did not show dose-dependent loss of viability” each time. Moreover, the “lung lesions (normalized photon flux)” value in assay [7] and in assay [8] was “modestly reduced” throughout.
On to retinal, for which the STRA6 expression entry in [1] (setting [16]) and in assay [2] (setting [16]) was “significantly induced” throughout.
`C=CC(=O)Nc1cc(Nc2nccc(-c3cn(C)c4ccccc34)n2)c(OC)cc1N(C)CCN(C)C` [osimertinib]: the “inhibition of EGFR and ERK phosphorylation” value in [9] and in [11] was “dose-dependent inhibition” in each case. The “p-EGFR in brain metastatic lesions” value in [10] is given as “significantly reduced”. The brain-metastasis-progression-free survival result in assay [12] was “no longer increased”; in [15] (osimertinib vs vehicle), “no longer prolonged”. Besides, the “p-EGFR in micro- and relapsed-metastatic brain lesions” value in assay [13] was “significantly reduced”. The “median progression-free survival (PFS)” value in assay [14] (first-line treatment, EGFR-mutant metastatic lung cancer patients) is listed as 18.9 months. In assay [14] (lung cancer patients treated with osimertinib), the “patients with CNS progression” value was 20%. In assay [15] (vehicle or osimertinib), the “mice with rapid progression to the brain” value is given as 100%.
Consider `CC1(C)CC=C(c2cnc3ccccc3c2)c2cc(C(=O)Nc3ccc(C(=O)O)cc3)ccc21` [BMS195614], for which the “inhibition of retinol-induced STRA6 expression” value in assay [1] and in [2] was “only modestly inhibited” each time.
Turning to `CC1(C)CCC(C)(C)c2cc(C3(c4ccc5cc(C(=O)O)ccc5c4)SCCS3)ccc21` [MM11253], the “inhibition of retinol-induced STRA6 expression” value in assay [1] and in assay [2] was “only modestly inhibited” in each case.
